Assay results: article PMC12879253 (Molecular pharmaceutics, 2025)

Key:
[1] = tested on: NCI/ADR-RES ovarian cancer cell; conditions: overexpresses p-gp; cited from earlier work
[2] = tested on: NCI/ADR-RES drug resistant ovarian cancer xenografts; experiment: Efficacy in NCI/ADR-RES xenografts; type: in vivo, mouse; conditions: doxorubicin 2.0 mg/kg iv, terminated after the third dose
[3] = aqueous buffer; cited from earlier work

Compound	effectiveness in drug-resistant cells [1]	body weight loss [2]	half-life of hydrolysis to dox [3] [min]
COc1cccc2c1C(=O)c1c(O)c3c(c(O)c1C2=O)C[C@@](O)(C(=O)CO)C[C@@H]3O[C@H]1C[C@H](N)[C@H](O)[C@H](C)O1 [dox, Doxorubicin]	not effective	more than 20%	
COc1cccc2c1C(=O)c1c(O)c3c(c(O)c1C2=O)C[C@@](O)(C(=O)CO)C[C@@H]3O[C@H]1C[C@@H]2NCO[C@@H]2[C@H](C)O1 [doxaz, Doxazolidine]	effective		3
CC(=O)O[C@H]1C(=O)[C@@]2(C)[C@H]([C@H](OC(=O)c3ccccc3)[C@]3(O)C[C@H](OC(=O)[C@H](O)[C@@H](NC(=O)c4ccccc4)c4ccccc4)C(C)=C1C3(C)C)[C@]1(OC(C)=O)CO[C@@H]1C[C@@H]2O [paclitaxel]	not effective		
